Results reported in ChEMBL document CHEMBL1201861, “Genomics of Drug Sensitity in Cancer screening data, Wellcome Trust Sanger Institute”.

Experiments:
[1] = system: NCI-H1694; experiment: cells; assay type: functional, cell-based, Homo sapiens; conditions: Homo sapiens, NCI-H1694;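 further: cell viability assay measuring inhibition of growth in human NCI-H1694 cells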
Description: SANGER: Inhibition of human NCI-H1694 cell growth in a cell viability assay.

[2] = system: MKN-1; experiment: cells; assay type: functional, cell-based; conditions: Homo sapiens;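 further: growth inhibition of human MKN1 cells, read out by a cell viability measurement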
Description: SANGER: Inhibition of human MKN1 cell growth in a cell viability assay.

[3] = system: MDA-MB-361; experiment: cells; assay type: functional, cell-based; conditions: Homo sapiens
[4] = system: L-540; experiment: cells; assay type: functional, cell-based, Homo sapiens; conditions: Homo sapiens, L-540;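 further: growth inhibition of the human L-540 cell line, read out with a viability assay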
Description: SANGER: Inhibition of human L-540 cell growth in a cell viability assay.

[5] = system: SK-HEP1; experiment: cells; assay type: functional, cell-based, SK-HEP-1; conditions: Homo sapiens;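 further: cell viability readout used to quantify reduction in proliferation of human SK-HEP-1 cells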
Description: SANGER: Inhibition of human SK-HEP-1 cell growth in a cell viability assay.

[6] = system: RVH-421; experiment: cells; assay type: functional, cell-based; conditions: Homo sapiens
Description: SANGER: Inhibition of human RVH-421 cell growth in a cell viability assay.

[7] = system: 23132-87; experiment: cells; assay type: functional, cell-based; conditions: Homo sapiens
Description: SANGER: Inhibition of human 23132-87 cell growth in a cell viability assay.

[8] = system: OE19; experiment: cells; assay type: functional, cell-based; conditions: Homo sapiens;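 further: growth inhibition of OE19 cells, measured through a cell viability read-out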
Description: SANGER: Inhibition of human OE19 cell growth in a cell viability assay.

[9] = system: CMK; experiment: cells; assay type: functional, cell-based, Homo sapiens; conditions: Homo sapiens, CMK;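 further: growth inhibition of CMK cells, read out as cell viability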
Description: SANGER: Inhibition of human CMK cell growth in a cell viability assay.

[10] = system: BC1 cell line; experiment: SANGER: Inhibition of human BC-1 cell growth in a cell viability assay.; assay type: functional, cell-based; conditions: Homo sapiens, BC1
[11] = system: PANC-03-27; experiment: cells; assay type: functional, cell-based; conditions: Homo sapiens
Description: SANGER: Inhibition of human PANC-03-27 cell growth in a cell viability assay.

[12] = system: U2OS; experiment: cells; assay type: functional, cell-based, U-2-OS; conditions: Homo sapiens;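 further: growth inhibition of human U-2-OS cells, determined with a cell viability assay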
Description: SANGER: Inhibition of human U-2-OS cell growth in a cell viability assay.

[13] = system: CAL-51; experiment: cells; assay type: functional, cell-based; conditions: Homo sapiens;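 further: human CAL-51 cell line, growth inhibition read out via a cell viability assay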
Description: SANGER: Inhibition of human CAL-51 cell growth in a cell viability assay.

[14] = system: TE-441-T; experiment: cells; assay type: functional, cell-based, Homo sapiens; conditions: Homo sapiens, TE-441-T
Description: SANGER: Inhibition of human TE-441-T cell growth in a cell viability assay.

[15] = system: COLO-792; experiment: cells; assay type: functional, cell-based; conditions: Homo sapiens
Description: SANGER: Inhibition of human COLO-792 cell growth in a cell viability assay.

[16] = system: SW837; experiment: cells; assay type: functional, cell-based; conditions: Homo sapiens;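 further: growth inhibition of SW837 cells, determined with a cell viability assay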
Description: SANGER: Inhibition of human SW837 cell growth in a cell viability assay.

[17] = system: IGR-1; experiment: cells; assay type: functional, cell-based; conditions: Homo sapiens;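 further: growth inhibition of human IGR-1 cells, read out with a cell viability assay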
Description: SANGER: Inhibition of human IGR-1 cell growth in a cell viability assay.

[18] = system: CaR-1; experiment: cells; assay type: functional, cell-based; conditions: Homo sapiens;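 further: growth inhibition of human CaR-1 cancer cells, read out with a cell viability assay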
Description: SANGER: Inhibition of human CaR-1 cell growth in a cell viability assay.

[19] = system: CHL-1; experiment: cells; assay type: functional, cell-based; conditions: Homo sapiens;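 further: cell growth inhibition, read out with a cell viability assay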
Description: SANGER: Inhibition of human CHL-1 cell growth in a cell viability assay.

[20] = system: SK-MES-1; experiment: cells; assay type: functional, cell-based; conditions: Homo sapiens;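 further: growth inhibition of human SK-MES-1 cells, read out with a cell viability assay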
Description: SANGER: Inhibition of human SK-MES-1 cell growth in a cell viability assay.

[21] = system: MEL-JUSO; experiment: cells; assay type: functional, cell-based; conditions: Homo sapiens;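 further: growth inhibition of human MEL-JUSO cells, read out with a cell viability assay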
Description: SANGER: Inhibition of human MEL-JUSO cell growth in a cell viability assay.

[22] = system: HCC1954; experiment: cells; assay type: functional, cell-based; conditions: Homo sapiens;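 further: growth inhibition of human HCC1954 cells, read out with a cell viability assay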
Description: SANGER: Inhibition of human HCC1954 cell growth in a cell viability assay.

[23] = system: A-375; experiment: cells; assay type: functional, cell-based; conditions: Homo sapiens;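 further: growth inhibition of A375 cells, read out with a cell viability assay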
Description: SANGER: Inhibition of human A375 cell growth in a cell viability assay.

[24] = system: 786-0; experiment: cells; assay type: functional, cell-based; conditions: Homo sapiens
Description: SANGER: Inhibition of human 786-0 cell growth in a cell viability assay.

[25] = system: MC-CAR; experiment: cells; assay type: functional, cell-based, Homo sapiens; conditions: Homo sapiens, MC-CAR;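 further: growth inhibition of the human MC-CAR cell line, read out by a cell viability assay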
Description: SANGER: Inhibition of human MC-CAR cell growth in a cell viability assay.

[26] = system: KP-4; experiment: cells; assay type: functional, cell-based; conditions: Homo sapiens;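 further: human KP-4 cells, with growth inhibition read out through a cell viability assay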
Description: SANGER: Inhibition of human KP-4 cell growth in a cell viability assay.

[27] = system: MDA-MB-157; experiment: cells; assay type: functional, cell-based; conditions: Homo sapiens
Description: SANGER: Inhibition of human MDA-MB-157 cell growth in a cell viability assay.

[28] = system: WSU-NHL; experiment: cells; assay type: functional, cell-based, Homo sapiens; conditions: Homo sapiens, WSU-NHL;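 further: growth inhibition of human WSU-NHL cells, read out with a cell viability assay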
Description: SANGER: Inhibition of human WSU-NHL cell growth in a cell viability assay.

[29] = system: NCI-H1417; experiment: cells; assay type: functional, cell-based, Homo sapiens; conditions: Homo sapiens, NCI-H1417;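 further: human NCI-H1417 cells, growth inhibition determined with a cell viability readout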
Description: SANGER: Inhibition of human NCI-H1417 cell growth in a cell viability assay.

[30] = system: EFO-21; experiment: cells; assay type: functional, cell-based; conditions: Homo sapiens;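 further: growth inhibition of EFO-21 cells measured with a viability assay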
Description: SANGER: Inhibition of human EFO-21 cell growth in a cell viability assay.

[31] = system: SK-MEL-28; experiment: cells; assay type: functional, cell-based; conditions: Homo sapiens;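 further: growth inhibition of human SK-MEL-28 cells, read out with a cell viability assay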
Description: SANGER: Inhibition of human SK-MEL-28 cell growth in a cell viability assay.

[32] = system: KYSE-520 cell line; experiment: cells; assay type: functional, cell-based; conditions: Homo sapiens;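 further: growth inhibition of human KYSE-520 cells, read out with a viability assay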
Description: SANGER: Inhibition of human KYSE-520 cell growth in a cell viability assay.

[33] = system: A 172; experiment: cells; assay type: functional, cell-based; conditions: Homo sapiens;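 further: growth inhibition of A172 cells, measured with a cell viability readout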
Description: SANGER: Inhibition of human A172 cell growth in a cell viability assay.

[34] = system: MHH-CALL-2; experiment: cells; assay type: functional, cell-based, Homo sapiens; conditions: Homo sapiens, MHH-CALL-2;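 further: growth inhibition of the cell line, read out in a cell viability assay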
Description: SANGER: Inhibition of human MHH-CALL-2 cell growth in a cell viability assay.

[35] = system: Daudi; experiment: cells; assay type: functional, cell-based, Homo sapiens; conditions: Homo sapiens, Daudi;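 further: growth inhibition of Daudi cells, read out by a viability assay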
Description: SANGER: Inhibition of human Daudi cell growth in a cell viability assay.

[36] = system: BEN; experiment: cells; assay type: functional, cell-based; conditions: Homo sapiens;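 further: growth inhibition of the BEN cell line, read out with a cell viability assay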
Description: SANGER: Inhibition of human BEN cell growth in a cell viability assay.

[37] = system: CHP-212; experiment: cells; assay type: functional, cell-based; conditions: Homo sapiens
Description: SANGER: Inhibition of human CHP-212 cell growth in a cell viability assay.

[38] = system: ABC-1; experiment: cells; assay type: functional, cell-based; conditions: Homo sapiens;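 further: growth inhibition of human ABC-1 cells, read out by a cell viability assay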
Description: SANGER: Inhibition of human ABC-1 cell growth in a cell viability assay.

[39] = system: KYSE-70 cell line; experiment: cells; assay type: functional, cell-based; conditions: Homo sapiens;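 further: cell viability assay read-out, with IC50 expressing suppression of KYSE-70 cell growth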
Description: SANGER: Inhibition of human KYSE-70 cell growth in a cell viability assay.

[40] = system: NCI-H1693; experiment: cells; assay type: functional, cell-based; conditions: Homo sapiens;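 further: growth inhibition of the human cell line, read out with a cell viability assay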
Description: SANGER: Inhibition of human NCI-H1693 cell growth in a cell viability assay.

[41] = system: NCI-H1651; experiment: cells; assay type: functional, cell-based; conditions: Homo sapiens;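 further: Read-out is a cell viability assay, with IC50 expressing inhibition of NCI-H1651 cell growth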
Description: SANGER: Inhibition of human NCI-H1651 cell growth in a cell viability assay.

[42] = system: HuP-T4; experiment: cells; assay type: functional, cell-based; conditions: Homo sapiens;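 further: cell viability assay measuring how much HuP-T4 cell growth is inhibited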
Description: SANGER: Inhibition of human HuP-T4 cell growth in a cell viability assay.

[43] = system: SNU-449; experiment: cells; assay type: functional, cell-based; conditions: Homo sapiens
Description: SANGER: Inhibition of human SNU-449 cell growth in a cell viability assay.

[44] = system: YT; experiment: cells; assay type: functional, cell-based, Homo sapiens; conditions: Homo sapiens, YT
Description: SANGER: Inhibition of human YT cell growth in a cell viability assay.

[45] = system: SF-295; experiment: cells; assay type: functional, cell-based; conditions: Homo sapiens;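 further: growth inhibition of SF-295 cells, read out with a cell viability assay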
Description: SANGER: Inhibition of human SF295 cell growth in a cell viability assay.

[46] = system: LCLC-103H cell line; experiment: cells; assay type: functional, cell-based; conditions: Homo sapiens
Description: SANGER: Inhibition of human LCLC-103H cell growth in a cell viability assay.

[47] = system: NCI-H889; experiment: cells; assay type: functional, cell-based, Homo sapiens; conditions: Homo sapiens, NCI-H889;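 further: cell growth inhibition of the cell line, read out with a viability assay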
Description: SANGER: Inhibition of human NCI-H889 cell growth in a cell viability assay.

[48] = system: SK-MEL3; experiment: cells; assay type: functional, cell-based, SK-MEL-3; conditions: Homo sapiens;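 further: growth inhibition of human SK-MEL-3 cells, read out with a cell viability assay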
Description: SANGER: Inhibition of human SK-MEL-3 cell growth in a cell viability assay.

[49] = system: HO-1-N-1; experiment: cells; assay type: functional, cell-based; conditions: Homo sapiens;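 further: growth inhibition of human HO-1-N-1 cells, read out with a cell viability assay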
Description: SANGER: Inhibition of human HO-1-N-1 cell growth in a cell viability assay.

[50] = system: GCT; experiment: cells; assay type: functional, cell-based; conditions: Homo sapiens;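 further: GCT cell line proliferation inhibition, read out with a cell viability assay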
Description: SANGER: Inhibition of human GCT cell growth in a cell viability assay.

[51] = system: THP-1; experiment: cells; assay type: functional, cell-based, Homo sapiens; conditions: Homo sapiens, THP-1;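 further: growth inhibition of THP-1 cells, read out via a cell viability assay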
Description: SANGER: Inhibition of human THP-1 cell growth in a cell viability assay.

[52] = system: HC-1; experiment: cells; assay type: functional, cell-based, Homo sapiens; conditions: Homo sapiens, HC-1;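 further: growth inhibition of HC-1 cells measured by a cell viability assay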
Description: SANGER: Inhibition of human HC-1 cell growth in a cell viability assay.

[53] = system: RMG-I; experiment: cells; assay type: functional, cell-based; conditions: Homo sapiens;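 further: growth inhibition of human RMG-I cells, read out with a cell viability assay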
Description: SANGER: Inhibition of human RMG-I cell growth in a cell viability assay.

[54] = system: SJRH30; experiment: cells; assay type: functional, cell-based; conditions: Homo sapiens;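 further: growth inhibition of human SJRH30 cells, read out with a cell viability assay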
Description: SANGER: Inhibition of human SJRH30 cell growth in a cell viability assay.

[55] = system: MRK-nu-1; experiment: cells; assay type: functional, cell-based, Homo sapiens; conditions: Homo sapiens, MRK-nu-1;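 further: cell viability assay measuring growth suppression of human MRK-nu-1 cells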
Description: SANGER: Inhibition of human MRK-nu-1 cell growth in a cell viability assay.

[56] = system: HCT-15; experiment: cells; assay type: functional, cell-based; conditions: Homo sapiens;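 further: cell viability readout, IC50 reflecting suppression of HCT-15 cell growth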
Description: SANGER: Inhibition of human HCT-15 cell growth in a cell viability assay.

[57] = system: HuCCT-1; experiment: cells; assay type: functional, cell-based, HuCCT1; conditions: Homo sapiens;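 further: growth inhibition of HuCCT-1 cells, read out by a cell viability assay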
Description: SANGER: Inhibition of human HuCCT1 cell growth in a cell viability assay.

[58] = system: NCI-H524; experiment: cells; assay type: functional, cell-based, Homo sapiens; conditions: Homo sapiens, NCI-H524;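 further: growth inhibition of human NCI-H524 cells, read out through a cell viability assay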
Description: SANGER: Inhibition of human NCI-H524 cell growth in a cell viability assay.

[59] = system: G-401; experiment: cells; assay type: functional, cell-based; conditions: Homo sapiens
Description: SANGER: Inhibition of human G-401 cell growth in a cell viability assay.

Compound: CCCCCCCCCCCC1=C(O)C(=O)C=C(O)C1=O [EMBELIN]
- IC50 [1]: > 32000 nM
- IC50 [2]: 12300 nM
- IC50 [3]: 19600 nM
- IC50 [4]: 8420 nM
- IC50 [5]: 9580 nM
- IC50 [6]: 11500 nM
- IC50 [7]: 23300 nM
- IC50 [8]: 29700 nM
- IC50 [9]: 10700 nM
- IC50 [10]: 5030 nM
- IC50 [11]: > 32000 nM
- IC50 [12]: > 32000 nM
- IC50 [13]: 5370 nM
- IC50 [14]: > 32000 nM
- IC50 [15]: > 32000 nM
- IC50 [16]: 18000 nM
- IC50 [17]: 5380 nM
- IC50 [18]: > 32000 nM
- IC50 [19]: 4700 nM
- IC50 [20]: 5010 nM
- IC50 [21]: 7850 nM
- IC50 [22]: 11300 nM
- IC50 [23]: 3570 nM
- IC50 [24]: 8640 nM
- IC50 [25]: 4580 nM
- IC50 [26]: > 32000 nM
- IC50 [27]: 6880 nM
- IC50 [28]: 13600 nM
- IC50 [29]: > 32000 nM
- IC50 [30]: 15600 nM
- IC50 [31]: 8480 nM
- IC50 [32]: 18500 nM
- IC50 [33]: 8780 nM
- IC50 [34]: > 32000 nM
- IC50 [35]: 5750 nM
- IC50 [36]: > 32000 nM
- IC50 [37]: 3120 nM
- IC50 [38]: > 32000 nM
- IC50 [39]: 15100 nM
- IC50 [40]: > 32000 nM
- IC50 [41]: 5980 nM
- IC50 [42]: 7560 nM
- IC50 [43]: 16500 nM
- IC50 [44]: 12800 nM
- IC50 [45]: 1750 nM
- IC50 [46]: 9060 nM
- IC50 [47]: > 32000 nM
- IC50 [48]: 16200 nM
- IC50 [49]: 12300 nM
- IC50 [50]: > 32000 nM
- IC50 [51]: 29800 nM
- IC50 [52]: 5400 nM
- IC50 [53]: 9240 nM
- IC50 [54]: 7970 nM
- IC50 [55]: 12900 nM
- IC50 [56]: 9250 nM
- IC50 [57]: 9920 nM
- IC50 [58]: > 32000 nM
- IC50 [59]: 8320 nM

Compound: C/C(=C\c1csc(C)n1)[C@@H]1C[C@@H]2O[C@]2(C)CCC[C@H](C)[C@H](O)[C@@H](C)C(=O)C(C)(C)[C@@H](O)CC(=O)O1 [PATUPILONE]
- IC50 [1]: > 32 nM
- IC50 [2]: 2.65 nM
- IC50 [3]: 16.5 nM
- IC50 [4]: 10.7 nM
- IC50 [5]: 1.11 nM
- IC50 [6]: 14.3 nM
- IC50 [7]: 3.67 nM
- IC50 [8]: 4.66 nM
- IC50 [9]: 1.33 nM
- IC50 [10]: 1.99 nM
- IC50 [11]: 0.132 nM
- IC50 [12]: > 32 nM
- IC50 [13]: 1.66 nM
- IC50 [14]: 26.3 nM
- IC50 [15]: > 32 nM
- IC50 [16]: 2.47 nM
- IC50 [17]: 0.863 nM
- IC50 [18]: > 32 nM
- IC50 [19]: 0.979 nM
- IC50 [20]: 1.24 nM
- IC50 [21]: 0.928 nM
- IC50 [22]: 9.19 nM
- IC50 [23]: 0.05 nM
- IC50 [24]: 0.11 nM
- IC50 [25]: 9.73 nM
- IC50 [26]: 0.682 nM
- IC50 [27]: > 32 nM
- IC50 [28]: 4.15 nM
- IC50 [29]: 21 nM
- IC50 [30]: 9.82 nM
- IC50 [31]: > 32 nM
- IC50 [32]: 10.4 nM
- IC50 [33]: 1.92 nM
- IC50 [34]: > 32 nM
- IC50 [35]: 24.8 nM
- IC50 [36]: 20.6 nM
- IC50 [37]: 5.83 nM
- IC50 [38]: 1.68 nM
- IC50 [39]: 7.58 nM
- IC50 [40]: > 32 nM
- IC50 [41]: 3.71 nM
- IC50 [42]: 2.54 nM
- IC50 [43]: 1.91 nM
- IC50 [44]: 18.7 nM
- IC50 [45]: 1.92 nM
- IC50 [46]: 0.31 nM
- IC50 [47]: > 32 nM
- IC50 [48]: 20.9 nM
- IC50 [49]: 1.66 nM
- IC50 [50]: 6.61 nM
- IC50 [51]: 23.5 nM
- IC50 [52]: 3.98 nM
- IC50 [53]: > 32 nM
- IC50 [54]: 12.9 nM
- IC50 [55]: 0.9 nM
- IC50 [56]: 0.717 nM
- IC50 [57]: 2.61 nM
- IC50 [58]: 23.1 nM
- IC50 [59]: 1.51 nM
